# From patent publication US20260027068A1, “METHODS OF ADM[…]-KETAMINE” (Perception Neuroscience, Inc., priority 2022, published 2026)
# Tests used:
# Pulse (vital signs) = test: Pulse (vital signs)
# Procedure: The Investigational Medicinal Product (IMP) R(−)-ketamine hydrochloride in sterile water for intravenous injection was investigated as an […] treatment of TRD. The International Union of Pure and Applied Chemistry (IUPAC) name is of the IMP is (2R)-2-(2-chlorophenyl)-2-(methylamino)cyclohexan-1-one. Subjects received the solution at either 30 mg or 60 mg dose, or a placebo. The IMP or placebo was administered on Day 1 as a single IV infusion via an electronic infusion pump over 40 minutes. The duration of study participation for each subject was up to 29 days including a screening period, a 3-day in-clinic visit, and 2 follow-up visits. 101 subjects were enrolled in approximately 20 study centers in the EU and the US.
# Tympanic or temporal temperature, heart rate, blood pressure (SBP/DBP), respiratory rate, and SpO2 were assessed. Blood pressure and pulse measurements will be assessed with a completely automated device while the subject is supine or semi-supine. Manual techniques will be used only if an automated device is not available. Blood pressure and pulse measurements should be preceded by at least 5 minutes of rest for the subject in a quiet setting without distractions (e.g., television, cell phones). An abnormal blood pressure value at screening may be repeated once after 5 minutes of relaxation to determine the subject's eligibility. Blood pressure was recorded using the same arm and position (supine or semi-supine) throughout the study, where possible. Vital signs (to be taken before blood collection for laboratory tests) consisted of 1 pulse and 3 blood pressure measurements (3 consecutive blood pressure readings will be recorded at intervals of at least 1 minute). The average of the 3 blood pressure readings was recorded in the CRF. A pulse oximeter was used to measure peripheral capillary oxygen saturation (SpO2) continuously from pre-dose until 4-hours post-dose. A pulse oximeter was clipped onto the finger or foot of the subject, and light will be sent through the finger or foot and measured on the other side.
# In these tables, baseline value is defined as the last non-missing value prior to study drug administration.
# rats [1] = test: Precipitated withdrawal from morphine; assay type: in vivo
# CYP2B6 = molecular target: T1, CYP2B6 (Homo sapiens, UniProt P20813); settings: in vitro
# T1 sequence (P20813 1-491): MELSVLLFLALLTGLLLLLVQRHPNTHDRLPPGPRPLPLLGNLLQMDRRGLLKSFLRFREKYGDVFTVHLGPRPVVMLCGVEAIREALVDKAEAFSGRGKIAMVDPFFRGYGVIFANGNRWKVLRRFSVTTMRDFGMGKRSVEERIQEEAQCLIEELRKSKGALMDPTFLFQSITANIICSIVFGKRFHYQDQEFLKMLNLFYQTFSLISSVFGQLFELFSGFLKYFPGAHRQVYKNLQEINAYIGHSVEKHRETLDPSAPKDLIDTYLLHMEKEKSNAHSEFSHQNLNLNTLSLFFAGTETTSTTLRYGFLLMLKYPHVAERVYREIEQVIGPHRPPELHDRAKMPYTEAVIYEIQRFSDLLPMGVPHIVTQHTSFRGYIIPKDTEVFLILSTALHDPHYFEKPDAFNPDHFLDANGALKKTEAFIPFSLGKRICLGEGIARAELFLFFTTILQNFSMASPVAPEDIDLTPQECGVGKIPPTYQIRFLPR
# rodents = settings: 10 mg/kg; cited from earlier work
# [2] = in vivo; cited from earlier work
# CYP3A4 = test: In vitro CYP induction
# rats [3] = test: Anhedonic or negative affective side effects
smiles,measurement,setting,value
"CN[C@@]1(c2ccccc2Cl)CCCCC1=O.Cl [R(−)-ketamine, (2R)-2-(2-chlorophenyl)-2-(methylamino)cyclohexan-1-one]",Pulse: Mean,"Pulse (vital signs); 30 mg, Day 1, 15 minutes",69.4 beats/minute
same,Pulse: Median,"Pulse (vital signs); 30 mg, Day 1, 15 minutes",70.0 beats/minute
same,Pulse: Mean,"Pulse (vital signs); 30 mg, Day 1, 40 minutes",69.9 beats/minute
same,Pulse: Median,"Pulse (vital signs); 30 mg, Day 1, 40 minutes",70.0 beats/minute
same,Pulse: Mean,"Pulse (vital signs); 30 mg, Day 1, 60 minutes",67.2 beats/minute
same,Pulse: Median,"Pulse (vital signs); 30 mg, Day 1, 60 minutes",68.5 beats/minute
same,Pulse: Mean,"Pulse (vital signs); 30 mg, Day 1, 2 hours",70.7 beats/minute
same,Pulse: Median,"Pulse (vital signs); 30 mg, Day 1, 2 hours",70.0 beats/minute
same,Pulse: Mean,"Pulse (vital signs); 30 mg, Day 1, 4 hours",72.1 beats/minute
same,Pulse: Median,"Pulse (vital signs); 30 mg, Day 1, 4 hours",72.0 beats/minute
same,Pulse: Mean,"Pulse (vital signs); 30 mg, Day 1, 6 hours",70.7 beats/minute
same,Pulse: Median,"Pulse (vital signs); 30 mg, Day 1, 6 hours",72.0 beats/minute
same,Pulse: Mean,"Pulse (vital signs); 30 mg, Day 2 - Discharge",73.5 beats/minute
same,Pulse: Median,"Pulse (vital signs); 30 mg, Day 2 - Discharge",75.0 beats/minute
same,Pulse: Mean,"Pulse (vital signs); 30 mg, Day 8",74.1 beats/minute
same,Pulse: Median,"Pulse (vital signs); 30 mg, Day 8",74.0 beats/minute
same,Pulse: Mean,"Pulse (vital signs); 30 mg, Day 15",74.4 beats/minute
same,Pulse: Median,"Pulse (vital signs); 30 mg, Day 15",75.0 beats/minute
same,"Pulse: Change from Baseline, Mean","Pulse (vital signs); 30 mg, to Day 1, 15 minutes",−0.4 beats/minute
same,"Pulse: Change from Baseline, Median","Pulse (vital signs); 30 mg, to Day 1, 15 minutes",0.0 beats/minute
same,"Pulse: Change from Baseline, Mean","Pulse (vital signs); 30 mg, to Day 1, 40 minutes",−0.6 beats/minute
same,"Pulse: Change from Baseline, Median","Pulse (vital signs); 30 mg, to Day 1, 40 minutes",−1.0 beats/minute
same,"Pulse: Change from Baseline, Mean","Pulse (vital signs); 30 mg, to Day 1, 60 minutes",−2.5 beats/minute
same,"Pulse: Change from Baseline, Median","Pulse (vital signs); 30 mg, to Day 1, 60 minutes",−3.5 beats/minute
same,"Pulse: Change from Baseline, Mean","Pulse (vital signs); 30 mg, to Day 1, 2 hours",0.2 beats/minute
same,"Pulse: Change from Baseline, Median","Pulse (vital signs); 30 mg, to Day 1, 2 hours",−2.0 beats/minute
same,"Pulse: Change from Baseline, Mean","Pulse (vital signs); 30 mg, to Day 1, 4 hours",1.6 beats/minute
same,"Pulse: Change from Baseline, Median","Pulse (vital signs); 30 mg, to Day 1, 4 hours",2.0 beats/minute
same,"Pulse: Change from Baseline, Mean","Pulse (vital signs); 30 mg, to Day 1, 6 hours",0.2 beats/minute
same,"Pulse: Change from Baseline, Median","Pulse (vital signs); 30 mg, to Day 1, 6 hours",1.0 beats/minute
same,"Pulse: Change from Baseline, Mean","Pulse (vital signs); 30 mg, to Day 2 - Discharge",3.1 beats/minute
same,"Pulse: Change from Baseline, Median","Pulse (vital signs); 30 mg, to Day 2 - Discharge",2.0 beats/minute
same,"Pulse: Change from Baseline, Mean","Pulse (vital signs); 30 mg, to Day 8",2.1 beats/minute
same,"Pulse: Change from Baseline, Median","Pulse (vital signs); 30 mg, to Day 8",1.0 beats/minute
same,"Pulse: Change from Baseline, Mean","Pulse (vital signs); 30 mg, to Day 15",3.3 beats/minute
same,"Pulse: Change from Baseline, Median","Pulse (vital signs); 30 mg, to Day 15",2.0 beats/minute
same,Pulse: Mean,"Pulse (vital signs); 60 mg, Day 1, 15 minutes",67.3 beats/minute
same,Pulse: Median,"Pulse (vital signs); 60 mg, Day 1, 15 minutes",66.5 beats/minute
same,Pulse: Mean,"Pulse (vital signs); 60 mg, Day 1, 40 minutes",68.0 beats/minute
same,Pulse: Median,"Pulse (vital signs); 60 mg, Day 1, 40 minutes",68.0 beats/minute
same,Pulse: Mean,"Pulse (vital signs); 60 mg, Day 1, 60 minutes",64.9 beats/minute
same,Pulse: Median,"Pulse (vital signs); 60 mg, Day 1, 60 minutes",65.0 beats/minute
same,Pulse: Mean,"Pulse (vital signs); 60 mg, Day 1, 2 hours",68.2 beats/minute
same,Pulse: Median,"Pulse (vital signs); 60 mg, Day 1, 2 hours",70.0 beats/minute
same,Pulse: Mean,"Pulse (vital signs); 60 mg, Day 1, 4 hours",70.7 beats/minute
same,Pulse: Median,"Pulse (vital signs); 60 mg, Day 1, 4 hours",72.0 beats/minute
same,Pulse: Mean,"Pulse (vital signs); 60 mg, Day 1, 6 hours",72.6 beats/minute
same,Pulse: Median,"Pulse (vital signs); 60 mg, Day 1, 6 hours",71.0 beats/minute
same,Pulse: Mean,"Pulse (vital signs); 60 mg, Day 2 - Discharge",72.2 beats/minute
same,Pulse: Median,"Pulse (vital signs); 60 mg, Day 2 - Discharge",70.0 beats/minute
same,Pulse: Mean,"Pulse (vital signs); 60 mg, Day 8",73.3 beats/minute
same,Pulse: Median,"Pulse (vital signs); 60 mg, Day 8",70.0 beats/minute
same,Pulse: Mean,"Pulse (vital signs); 60 mg, Day 15",71.0 beats/minute
same,Pulse: Median,"Pulse (vital signs); 60 mg, Day 15",69.0 beats/minute
same,"Pulse: Change from Baseline, Mean","Pulse (vital signs); 60 mg, to Day 1, 15 minutes",0.0 beats/minute
same,"Pulse: Change from Baseline, Median","Pulse (vital signs); 60 mg, to Day 1, 15 minutes",0.5 beats/minute
same,"Pulse: Change from Baseline, Mean","Pulse (vital signs); 60 mg, to Day 1, 40 minutes",−4.7 beats/minute
same,"Pulse: Change from Baseline, Median","Pulse (vital signs); 60 mg, to Day 1, 40 minutes",−5.0 beats/minute
same,"Pulse: Change from Baseline, Mean","Pulse (vital signs); 60 mg, to Day 1, 60 minutes",−2.3 beats/minute
same,"Pulse: Change from Baseline, Median","Pulse (vital signs); 60 mg, to Day 1, 60 minutes",−1.0 beats/minute
same,"Pulse: Change from Baseline, Mean","Pulse (vital signs); 60 mg, to Day 1, 2 hours",−4.5 beats/minute
same,"Pulse: Change from Baseline, Median","Pulse (vital signs); 60 mg, to Day 1, 2 hours",−5.0 beats/minute
same,"Pulse: Change from Baseline, Mean","Pulse (vital signs); 60 mg, to Day 1, 4 hours",−2.0 beats/minute
same,"Pulse: Change from Baseline, Median","Pulse (vital signs); 60 mg, to Day 1, 4 hours",−1.0 beats/minute
same,"Pulse: Change from Baseline, Mean","Pulse (vital signs); 60 mg, to Day 1, 6 hours",−0.3 beats/minute
same,"Pulse: Change from Baseline, Median","Pulse (vital signs); 60 mg, to Day 1, 6 hours",0.5 beats/minute
same,"Pulse: Change from Baseline, Mean","Pulse (vital signs); 60 mg, to Day 2 - Discharge",−0.6 beats/minute
same,"Pulse: Change from Baseline, Median","Pulse (vital signs); 60 mg, to Day 2 - Discharge",−1.0 beats/minute
same,"Pulse: Change from Baseline, Mean","Pulse (vital signs); 60 mg, to Day 8",0.6 beats/minute
same,"Pulse: Change from Baseline, Median","Pulse (vital signs); 60 mg, to Day 8",0.0 beats/minute
same,"Pulse: Change from Baseline, Mean","Pulse (vital signs); 60 mg, to Day 15",−1.7 beats/minute
same,"Pulse: Change from Baseline, Median","Pulse (vital signs); 60 mg, to Day 15",0.0 beats/minute
same,Effect on symptoms of precipitated withdrawal from morphine,rats [1],significantly ameliorated the symptoms of precipitated withdrawal from morphine
same,CYP2B6 inhibition,CYP2B6,inhibitor
same,Antidepressant effect compared with S(+)-ketamine,rodents,longer acting and more potent effects than S(+)-ketamine
same,"Side effects (hyperlocomotion, prepulse inhibition deficit, drug dependence)",[2],did not
same,CYP3A4 induction,CYP3A4,inducer
same,Anhedonic or negative affective side effects,rats [3],no anhedonic or negative affective side effects
